Laboratory results from patent publication US10857246B2, “Nuclear imaging and radiotherapeutics agents targeting carbonic anhydrase IX and uses thereof” (THE JOHNS HOPKINS UNIVERSITY, priority 2015, dated 2020).

System: CAIX-expressing SK-RC-52 tumors
Assay: Biodistribution in mice bearing SK-RC-52 xenografts
Type: in vivo
Conditions: for Biodistribution Muscle / Biodistribution Pancreas / Biodistribution Small intestine / Biodistribution Spleen / Biodistribution Stomach / Biodistribution Tumor / Tumor/Blood ratio / Tumor/Kidney ratio / Tumor/Muscle ratio / Biodistribution Bladder / Biodistribution Blood / Biodistribution Brain / Biodistribution Fat / Biodistribution Heart / Biodistribution Kidney / Biodistribution Liver / Biodistribution Lung: 740 kBq i.v.
Method: Animal experiments were performed in accordance with protocols approved by the Johns Hopkins Animal Care and Use Committee (ACUC). Six-week-old female NOD/SCID mice were purchased from the Animal Resource Core of the Sidney Kimmel Comprehensive Cancer Center of Johns Hopkins and were subcutaneously injected in the lower left flank or upper right flank with 1×10^6 SK-RC-52 cells in RPMI 1640 GlutaMAX™ media (Life Technologies, Frederick, Md.) supplemented with 1% fetal bovine serum (FBS). Mice were monitored for tumor size and used for SPECT/CT imaging when the size of the tumor reached 100 mm^3.
Mice bearing SK-RC-52 xenografts at lower left flank were injected intravenously with 740 kBq (20 μCi) of [^111In]XYIMSR-01, or [^177Lu]XYIMSR-01 in 200 μL of PBS. For competitive blocking, same tumor bearing mice were injected with 740 kBq (20 μCi) of [^111In]XYIMSR-01 and 200 nmole of 8 in 200 μL of PBS. At 1 h, 4 h, 8 h, 24 h and 48 h post-injection, mice were sacrificed by cervical dislocation and the blood was immediately collected by cardiac puncture. Heart, lungs, pancreas, spleen, fat, brain, muscle, small intestines, liver, stomach, kidney, urinary bladder, and tumor were collected. Each organ was weighed and the tissue radioactivity was measured with an automated gamma counter (1282 Compugamma CS, Pharmacia/LKBNuclear, Inc., Mt. Waverly, Vic. Australia). The percentage of injected dose per gram of tissue (% ID/g) was calculated by comparison with samples of a standard dilution of the initial dose. All measurements were corrected for radioactive decay.
Data were expressed as mean±standard deviation (SD). Prism software (GraphPAD, San Diego, Calif.) was used to determine statistical significance. Statistical significance was calculated using a paired t test. P-values <0.0001 were considered significant.
Mice bearing SK-RC-52 xenografts within the lower left flank were injected intravenously with 740 kBq (20 μCi) of [Al^18F]XYIMSR-04 in 200 μL of PBS. At specific 1 hour time point mentioned in the paper, mice (n=5) were sacrificed by cervical dislocation and the blood was immediately collected by cardiac puncture. Heart, lungs, pancreas, spleen, fat, brain, muscle, small intestines, liver, bone, stomach, kidney, urinary bladder, and tumor were collected. Each organ was weighed and the tissue radioactivity was measured with an automated gamma counter (1282 Compugamma CS, Pharmacia/LKBNuclear, Inc., Mt. Waverly, Vic. Australia). The percentage of injected dose per gram of tissue (% ID/g) was calculated by comparison with samples of a standard dilution of the initial dose. All measurements were corrected for radioactive decay. Data were expressed as mean±standard deviation (SD). Prism software (GraphPAD, San Diego, Calif.) was used to determine statistical significance. Statistical significance was calculated using a paired t test. P-values <0.0001 were considered significant.
Mice bearing SK-RC-52 xenografts within the upper right flank were injected intravenously with 740 kBq (20 μCi) of [^64Cu]XYIMSR-06 in 200 μL of PBS. For in vivo competition (binding specificity) studies, tumor-bearing mice were injected with 740 kBq (20 μCi) of [^64Cu]XYIMSR-06 and 200 nmole of 8 in 200 μL of PBS concurrently. At specific times after injection (1 h, 4 h, 8 h and 24 h), mice (n=5) were sacrificed by cervical dislocation with blood immediately collected by cardiac puncture. Heart, lungs, pancreas, spleen, fat, brain, muscle, small intestines, liver, stomach, kidney, urinary bladder, and tumor were also collected. Each organ was weighed and the tissue radioactivity was measured with an automated gamma counter (1282 Compugamma CS, Pharmacia/LKBNuclear, Inc., Mt. Waverly, Vic. Australia). The percentage of injected dose per gram of tissue (% ID/g) was calculated by comparison with samples of a standard dilution of the initial dose. All measurements were corrected for radioactive decay. Data were expressed as mean±standard deviation (SD). […]

Structure (SMILES): CC(CCC(=O)N[C@@H](CC(=O)N[C@@H](CC(=O)N[C@@H](CCCCn1cc(CCCC(=O)Nc2nnc(S(N)(=O)=O)s2)nn1)C(=O)NCCOCCOCCNC(=O)CN1CCN(CC(=O)[O-])CCN(CC(=O)[O-])CCN(CC(=O)[O-])CC1)C(=O)O)C(=O)O)(c1ccc(O)cc1)c1ccc(O)cc1.[111In+3] [[^111In]XYIMSR-01]
- Biodistribution Muscle (24 h + block (200 nmole of 8)): 0.02 % ID/g
- Biodistribution Pancreas (24 h + block (200 nmole of 8)): 0.03 % ID/g
- Biodistribution Small intestine (24 h + block (200 nmole of 8)): 0.08 % ID/g
- Biodistribution Spleen (24 h + block (200 nmole of 8)): 0.08 % ID/g
- Biodistribution Stomach (24 h + block (200 nmole of 8)): 0.14 % ID/g
- Biodistribution Tumor (24 h + block (200 nmole of 8)): 1.41 % ID/g
- Tumor/Blood ratio (24 h + block (200 nmole of 8)): 45.2
- Tumor/Kidney ratio (24 h + block (200 nmole of 8)): 2.1
- Tumor/Muscle ratio (24 h + block (200 nmole of 8)): 91.4
- Uptake to tumors with simultaneously injected non-radioactive competitor 8 (24 h and 48 h post injection): ~1%
- Biodistribution Bladder (24 h post-injection): 0.74 % ID/g
- Biodistribution Blood (24 h post-injection): 0.15 % ID/g
- Biodistribution Brain (24 h post-injection): 0.71 % ID/g
- Biodistribution Fat (24 h post-injection): 0.28 % ID/g
- Biodistribution Heart (24 h post-injection): 1.16 % ID/g
- Biodistribution Kidney (24 h post-injection): 15.29 % ID/g
- Biodistribution Liver (24 h post-injection): 3.02 % ID/g
- Biodistribution Lung (24 h post-injection): 11.01 % ID/g
- Biodistribution Muscle (24 h post-injection): 0.35 % ID/g
- Biodistribution Pancreas (24 h post-injection): 0.69 % ID/g
- Biodistribution Small intestine (24 h post-injection): 2.11 % ID/g
- Biodistribution Spleen (24 h post-injection): 0.69 % ID/g
- Biodistribution Stomach (24 h post-injection): 3.31 % ID/g
- Biodistribution Tumor (24 h post-injection): 25.62 % ID/g
- Biodistribution Bladder (48 h + block (200 nmole of 8)): 0.14 % ID/g
- Biodistribution Blood (48 h + block (200 nmole of 8)): 0.03 % ID/g
- Biodistribution Brain (48 h + block (200 nmole of 8)): 0.03 % ID/g
- Biodistribution Fat (48 h + block (200 nmole of 8)): 0.03 % ID/g
- Biodistribution Heart (48 h + block (200 nmole of 8)): 0.04 % ID/g
- Biodistribution Kidney (48 h + block (200 nmole of 8)): 0.45 % ID/g
- Biodistribution Liver (48 h + block (200 nmole of 8)): 0.13 % ID/g
- Biodistribution Lung (48 h + block (200 nmole of 8)): 0.09 % ID/g
- Biodistribution Muscle (48 h + block (200 nmole of 8)): 0.02 % ID/g
- Biodistribution Pancreas (48 h + block (200 nmole of 8)): 0.03 % ID/g
- Biodistribution Small intestine (48 h + block (200 nmole of 8)): 0.08 % ID/g
- Biodistribution Spleen (48 h + block (200 nmole of 8)): 0.11 % ID/g
- Biodistribution Stomach (48 h + block (200 nmole of 8)): 0.14 % ID/g
- Biodistribution Tumor (48 h + block (200 nmole of 8)): 1.22 % ID/g
- Tumor/Blood ratio (48 h + block (200 nmole of 8)): 45.4
- Tumor/Kidney ratio (48 h + block (200 nmole of 8)): 2.7
- Tumor/Muscle ratio (48 h + block (200 nmole of 8)): 75.1
- Biodistribution Bladder (48 h post-injection): 0.38 % ID/g
- Biodistribution Blood (48 h post-injection): 0.06 % ID/g
- Biodistribution Brain (48 h post-injection): 0.41 % ID/g
- Biodistribution Fat (48 h post-injection): 0.25 % ID/g
- Biodistribution Heart (48 h post-injection): 0.84 % ID/g
- Biodistribution Kidney (48 h post-injection): 8.78 % ID/g
- Biodistribution Liver (48 h post-injection): 1.65 % ID/g
- Biodistribution Lung (48 h post-injection): 9.22 % ID/g
- Biodistribution Muscle (48 h post-injection): 0.39 % ID/g
- Biodistribution Pancreas (48 h post-injection): 0.59 % ID/g
- Biodistribution Small intestine (48 h post-injection): 1.22 % ID/g
- Biodistribution Spleen (48 h post-injection): 0.67 % ID/g
- Biodistribution Stomach (48 h post-injection): 1.82 % ID/g
- Biodistribution Tumor (48 h post-injection): 13.92 % ID/g
- Tumor/Blood ratio (48 h post-injection): 212.0
- Tumor/Kidney ratio (48 h post-injection): 1.5
- Tumor/Muscle ratio (48 h post-injection): 52.0
